Assay results published in patent publication US10952945B2, “Formulations containing an extract of Echinacea and linoleic acid derivatives” (DR. AUGUST WOLFF GMBH & CO. KG ARZNEIMITTEL, priority 2015, dated 2021).

Biological target: TRPV1 (Homo sapiens, UniProt Q8NER1)
Assay: Determination of TRPV1 agonistic activity (MTT cell viability of 293 T-VR1 cells)
Procedure: 2×10^4 293 T-VR1 cells (or parentale 293T cells as control) are cultivated in 96-well microtiter plates (Costar, Cambridge, Mass.) in 200 μL Dulbecco's Modified Eagle's Medium (DMEM), which also contains 10% foetal calf serum and 1% antibiotics (penicillin/streptomycin). The cells are incubated for 6 h with the test substances or the controls (capsaicin, TRPV1 agonist (1 μM); capsazepine, TRPV1 antagonist (10 μM); or capsaicin (1 μM) and capsazepine (10 μM)). Then, cell viability is determined.
The cytotoxic effect of the test substances was determined using the MTT (3-[4,5-dimethylthiazol-2-yl]-2,5-diphenyltetrazolium bromide) assay method. For this, 50 μL of a solution of MTT in DMEM (5 mg/mL) were added to each well. These were then incubated in the dark for 4 h at 37° C. The reaction was stopped, the residue was removed and 100 μL DMSO were added to each well. Incubation continued for 10 min with gentle shaking. Then the absorption at 550 nm was measured with a TECAN GENios Pro Plate Reader (Tecan Group Ltd., Switzerland). […] The determination was performed in triplicate.

Sequence of TRPV1 (Q8NER1 whole entry, species assumed): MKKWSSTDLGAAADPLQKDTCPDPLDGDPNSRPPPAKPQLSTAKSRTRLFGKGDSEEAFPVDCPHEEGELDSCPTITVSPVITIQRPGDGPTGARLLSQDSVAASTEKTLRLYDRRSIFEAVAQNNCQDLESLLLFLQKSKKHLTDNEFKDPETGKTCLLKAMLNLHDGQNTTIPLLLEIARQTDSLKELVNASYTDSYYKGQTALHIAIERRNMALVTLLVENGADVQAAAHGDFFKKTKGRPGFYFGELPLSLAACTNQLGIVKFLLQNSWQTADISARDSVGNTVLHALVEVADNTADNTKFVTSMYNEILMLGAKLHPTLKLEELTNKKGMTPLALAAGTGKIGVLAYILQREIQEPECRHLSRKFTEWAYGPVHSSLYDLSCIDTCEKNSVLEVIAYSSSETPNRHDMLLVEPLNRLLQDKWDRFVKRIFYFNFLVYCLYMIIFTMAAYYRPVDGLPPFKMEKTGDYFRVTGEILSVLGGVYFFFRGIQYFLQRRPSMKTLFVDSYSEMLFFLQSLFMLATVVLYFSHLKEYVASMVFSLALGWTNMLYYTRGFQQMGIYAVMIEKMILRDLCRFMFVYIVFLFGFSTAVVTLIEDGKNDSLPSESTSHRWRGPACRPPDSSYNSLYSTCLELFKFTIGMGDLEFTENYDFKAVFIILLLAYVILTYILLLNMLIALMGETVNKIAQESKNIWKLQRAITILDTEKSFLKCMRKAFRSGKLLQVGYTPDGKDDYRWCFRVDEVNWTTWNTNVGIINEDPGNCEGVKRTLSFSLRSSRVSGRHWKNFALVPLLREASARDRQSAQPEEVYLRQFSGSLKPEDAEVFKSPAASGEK

SMILES	cell viability (FIG. 1 experiment, capsaicin 1 μM, 293 T-VR1 cells, 6 h, percentage of vehicle control) [%]	cell viability (FIG. 2 experiment, capsaicin positive control) [%]	cell viability (FIG. 1 experiment, capsaicin (1 μM) and capsazepine (10 μM) together) [%]	cell viability (FIG. 2 experiment, capsaicin together with capsazepine) [%]	cell viability (human, 6 h, 10 μM) [%]
COc1cc(CNC(=O)CCCC/C=C/C(C)C)ccc1O [capsaicin]	54.9	70.6			
Oc1cc2c(cc1O)CN(C(=S)NCCc1ccc(Cl)cc1)CCC2 [capsazepine]			101.3	104.4	106.1
